Measurements: BindingDB's records for doi:10.1021/jm00032a003 (Merck Research Laboratories, 1994)

test: The compound was tested for binding activity against Cholecystokinin type B receptor from rat […] tissue using [125]BH CCK-8 as radioligand

In order of falling IC50:
1. CN1C(=O)[C@H](NC(=O)Nc2ccc(-c3nnn[nH]3)cc2)N=C(c2ccccc2)c2ccccc21 [1-((R)-1-Methyl-2-oxo-5-phenyl-2,3-dihydro-1H-benzo[e][1,4]diazepin-3-yl)-3-[4-(1H-tetrazol-5-yl)-phenyl]-urea]  250 nM
2. CN1C(=O)[C@H](NC(=O)Nc2ccc(-c3nc(=O)o[nH]3)cc2)N=C(c2ccccc2)c2ccccc21 [1-((R)-1-Methyl-2-oxo-5-phenyl-2,3-dihydro-1H-benzo[e][1,4]diazepin-3-yl)-3-[4-(5-oxo-4,5-dihydro-[1,2,4]oxadiazol-3-yl)-phenyl]-urea]  56.4 nM
3. CC(C)CN1C(=O)[C@H](NC(=O)Nc2ccc(-c3nnn[nH]3)cc2)N=C(c2ccccc2)c2ccccc21 [1-((R)-1-Isobutyl-2-oxo-5-phenyl-2,3-dihydro-1H-benzo[e][1,4]diazepin-3-yl)-3-[4-(1H-tetrazol-5-yl)-phenyl]-urea]  23.8 nM
4. CN1C(=O)[C@H](NC(=O)Nc2ccc(C(=O)O)cc2)N=C(c2ccccc2)c2ccccc21  6.7 nM
5. CN1C(=O)[C@@H](NC(=O)Nc2ccc(-c3nnn[nH]3)cc2)N=C(c2ccccc2)c2ccccc21 [1-((S)-1-Methyl-2-oxo-5-phenyl-2,3-dihydro-1H-benzo[e][1,4]diazepin-3-yl)-3-[4-(1H-tetrazol-5-yl)-phenyl]-urea]  1.02 nM
6. CN1C(=O)[C@@H](NC(=O)Nc2ccc(-c3nc(=O)o[nH]3)cc2)N=C(c2ccccc2)c2ccccc21 [1-((S)-1-Methyl-2-oxo-5-phenyl-2,3-dihydro-1H-benzo[e][1,4]diazepin-3-yl)-3-[4-(5-oxo-4,5-dihydro-[1,2,4]oxadiazol-3-yl)-phenyl]-urea]  0.266 nM
7. CC(C)CN1C(=O)[C@@H](NC(=O)Nc2ccc(-c3nnn[nH]3)cc2)N=C(c2ccccc2)c2ccccc21 [1-((S)-1-Isobutyl-2-oxo-5-phenyl-2,3-dihydro-1H-benzo[e][1,4]diazepin-3-yl)-3-[4-(1H-tetrazol-5-yl)-phenyl]-urea]  0.142 nM
